Measured values reported in patent publication US20250197408A1, “CRYSTALLINE FORMS AND SALTS OF A PI3K INHIBITOR AND METHODS OF MAKING AND METHODS OF USE THEREOF” (Totus Medicines Inc., priority 2022, published 2025).

Legend:
UM-UC-3 (bladder) = assay: Cell proliferation assay (CellTiter-Glo, 3 days treatment), UM-UC-3; format: cell-based; settings: read-out: Absolute IC50
Description: (§1) The cell lines tested included as follows: UM-UC-3 (bladder), KYSE-410 (HN/Esophagus), SW1463 (rectum), Calu-1 (Lung), NCI-H358 (Lung), SW837 (Rectum), SW756 (Cervix), NCI-H2122 (Lung), NCI-H1373 (Lung), NCI-H1792 (Lung), NCI-H23 (Lung), MIA PaCa-2 (Pancreas), and HC44.
(§2) Cells were recovered and maintained in appropriate culture media. The cells were harvested respectively during the logarithmic growth period. The cells were then resuspended and counted using a Vi cell counter (The cell viability be measured by trypan blue exclusion assay.). The cells were then diluted and 90 μL cell suspensions were used in 96-well plates according to plate map with final cell density. Two duplicate plates were set up. One is for day 0 reading (TO) and the other was cultured in incubator for reading at the end point. The incubated plates were incubated overnight in humidified incubator at 37° C. with 5% CO2.
(§3) At day 0, 10 μL culture medium to each well for TO reading. 10 μL of culture medium was added to each well for TO reading. Then, 50 μl CellTiter-Glo® Reagent was added to each well. […] Luminescence was then recorded using an EnVision Multi Label Reader. […]
(§4) For the endpoint CTG reading, 50 μL of CellTiter-Glo® Reagent were added to each well. […] Luminescence was then recorded using an EnVision Multi Label Reader. IC50's were determined for each cell line.

KYSE-410 (HN/Esophagus) = assay: Cell proliferation assay (CellTiter-Glo, 3 days treatment), KYSE-410; format: cell-based; settings: read-out: Absolute IC50
Description: as §1, §2, §3, §4

SW1463 (rectum) = assay: Cell proliferation assay (CellTiter-Glo, 3 days treatment), SW1463; format: cell-based; settings: read-out: Absolute IC50
Description: as §1, §2, §3, §4

Calu-1 (Lung) = assay: Cell proliferation assay (CellTiter-Glo, 3 days treatment), Calu-1; format: cell-based; settings: read-out: Absolute IC50
Description: as §1, §2, §3, §4

NCI-H358 (Lung) = assay: Cell proliferation assay (CellTiter-Glo, 3 days treatment), NCI-H358; format: cell-based; settings: NCI-H358 (Lung), 3 days treatment; read-out: Absolute IC50
Description: as §1, §2
At day 0, 10 μL culture medium to each well for TO reading. Then, 50 μl CellTiter-Glo® Reagent was added to each well. The contents were then mixed for 2 minutes on an orbital shaker to facilitate cell lysis. The plates were then allowed to incubate at room temperature for 10 minutes to stabilize luminescent signal. Luminescence was then recorded using an EnVision Multi Label Reader. The test compound Compound I, and a control cisplatin, where then diluted at various concentrations from a 10 mM stock solution. Compound I was diluted and 10 μL of each 10× compound I from working solutions for a concentration ranging from 10 μM to about 0.005 μM. Cisplatin was diluted to about […] to about 150 nM. The screening plates were then placed back into the incubator for the appropriate treatment time (3 days).
For the endpoint CTG reading, 50 μL of CellTiter-Glo® Reagent were added to each well. The contents were then mixed for 2 minutes on an orbital shaker to facilitate cell lysis. […] Luminescence was then recorded using an EnVision Multi Label Reader. IC50's were determined for each cell line.

SW837 (Rectum) = assay: Cell proliferation assay (CellTiter-Glo, 3 days treatment), SW837; format: cell-based; settings: read-out: Absolute IC50
Description: as §1, §2, §3, §4

SW756 (Cervix) = assay: Cell proliferation assay (CellTiter-Glo, 3 days treatment), SW756; format: cell-based; settings: read-out: Absolute IC50
Description: as §1, §2, §3, §4

NCI-H2122 (Lung) = assay: Cell proliferation assay (CellTiter-Glo, 3 days treatment), NCI-H2122; format: cell-based; settings: read-out: Absolute IC50
Description: as §1, §2, §3, §4

NCI-H1373 (Lung) = assay: Cell proliferation assay (CellTiter-Glo, 3 days treatment), NCI-H1373; format: cell-based; settings: read-out: Absolute IC50
Description: as §1, §2, §3, §4

NCI-H1792 (Lung) = assay: Cell proliferation assay (CellTiter-Glo, 3 days treatment), NCI-H1792; format: cell-based; settings: read-out: Absolute IC50
Description: as §1, §2, §3, §4

NCI-H23 (Lung) = assay: Cell proliferation assay (CellTiter-Glo, 3 days treatment), NCI-H23; format: cell-based; settings: read-out: Absolute IC50
Description: as §1, §2, §3, §4

MIA PaCa-2 (Pancreas) = assay: Cell proliferation assay (CellTiter-Glo, 3 days treatment), MIA PaCa-2; format: cell-based; settings: read-out: Absolute IC50
Description: as §1, §2, §3, §4

HC44 = assay: Cell proliferation assay (CellTiter-Glo, 3 days treatment), HC44; format: cell-based; settings: HCC44 (Lung), read-out: Absolute IC50
Description: as §1, §2, §3, §4

[1] = Solubility in 7 aqueous pH buffers and bio-relevant fluids at 37° C. (HPLC of supernatant; residual solids by XRPD); format: physicochemical
Experimental: 20 mg of the free base Form A of Compound I was weighed into a 20 mL glass vial. Amounts of the salts equivalent to 20 mg anhydrous free base were weighed into a glass vial. 10 mL of solubility medium was added. The resulting suspensions/solutions were stirred at 37° C. at 400 rpm and sampled at 2 hours and at 24 hours, respectively. The samples were centrifuged at 37° C. at 14,000 rpm for 5 min. Supernatants were analyzed by HPLC and pH meter for solubility and pH value, respectively. Residual solids (wet cakes) from the 24 hours samples were also characterized by XRPD to determine physical form.
Residual solids after the solubility test were analyzed by XRPD.

[2] = Dynamic vapor sorption (DVS) analysis at 25° C.; format: physicochemical
Experimental: In one embodiment, the crystalline forms are characterized by Dynamic Vapor Sorption (DVS). The DVS profile is typically expressed by a diagram plotting the sample relative humidity (RH) versus the change in mass (%). The DVS profile provides information on hygroscopicity of the crystalline form at different RH conditions.
A DVS (dynamic vapor sorption) analysis at 25° C. was carried out on Form A** of Compound I benzenesulfonate salt as shown in FIG. 3D.

[3] = Variable humidity XRPD (VH-XRPD) experiments at 25° C.; format: physicochemical; settings: VH-XRPD and DVS isotherms
Experimental: Variable humidity XRPD (VH-XRPD) experiments.
XRPD analysis was carried out in each specific relative humidity at 25° C. Step: 40% RH (initial)-60% RH (4 h)-80% RH (4 h)-40% RH (4 h)-20% RH (4 h)-0% RH (4 h)-40% RH (4 h).

[4] = ES1, pH 1.2 HCl solution (0.1N), 37° C.
[5] = ES2, pH 4.5 acetate buffer (50 mM), 37° C.
[6] = ES3, pH 6.8 phosphate buffer (50 mM), 37° C.
[7] = ES4, pH 7.4 phosphate buffer (50 mM), 37° C.

Q: For `N.N.[Cl][Pt][Cl]` [cisplatin, reference compound], which IC50 (UM-UC-3 (bladder)) is on record?
A: 1.86 µM

Q: And the IC50 (KYSE-410 (HN/Esophagus))?
A: 15.8 µM

Q: And the IC50 (SW1463 (rectum))?
A: 12.2 µM

Q: What about the IC50 (Calu-1 (Lung)) of the same compound?
A: 10.2 µM

Q: And the IC50 (NCI-H358 (Lung))?
A: 12.5 µM

Q: And the IC50 (SW837 (Rectum))?
A: 42.5 µM

Q: And the IC50 (SW756 (Cervix))?
A: 10.3 µM

Q: And the IC50 (NCI-H2122 (Lung))?
A: 17.8 µM

Q: What about the IC50 (NCI-H1373 (Lung)) of the same compound?
A: 8.72 µM

Q: And the IC50 (NCI-H1792 (Lung))?
A: 4.88 µM

Q: What about the IC50 (NCI-H23 (Lung)) of the same compound?
A: 3.58 µM

Q: And the IC50 (MIA PaCa-2 (Pancreas))?
A: 7.03 µM

Q: What about the IC50 (HC44) of the same compound?
A: 7.96 µM

Q: Which “solubility compared among forms” value ([1]; 37° C., 2 h and 24 h, 7 aqueous pH buffers and bio-relevant fluids) does the source give for `C=CC(=O)NCC(=O)N1CCN(Cc2cc3c(N4CCOCC4)nc(-c4cnc(NC(=O)OC)cc4C(F)(F)F)nn3c2)CC1.O=P(O)(O)O` [Form A* of Compound I phosphate salt, Methyl (5-(6-((4-(acryloylglycyl)piperazin-1-yl)methyl)-4-morpholinopyrrolo[2,1-f][1,2,4]triazin-2-yl)-4-(trifluoromethyl)pyridin-2-yl) carbamate phosphate salt] here?
A: highest solubility

Q: What about the “Solubility for 2 h” value [1, 4] of the same compound?
A: 1200 µg/mL

Q: And the “pH of supernatant, solubility for 2 h (pH)” value (shortened to “pH … for 2 h (pH)”) [1, 4]?
A: (1.2)

Q: What about the “Solubility for 24 h” value [1, 4] of the same compound?
A: 1000 µg/mL

Q: What about the “pH of supernatant, solubility for 24 h (pH)” value (“pH … for 24 h (pH)” for short) [1, 4] of the same compound?
A: (1.0)

Q: And the “Solubility for 2 h” value [1, 5]?
A: >2000 µg/mL

Q: And the “pH … for 2 h (pH)” value [1, 5]?
A: (4.4)

Q: And the “Solubility for 24 h” value [1, 5]?
A: >2000 µg/mL

Q: What about the “pH … for 24 h (pH)” value [1, 5] of the same compound?
A: (4.4)

Q: And the “Solubility for 2 h” value [1, 6]?
A: 8.8 µg/mL

Q: And the “pH … for 2 h (pH)” value [1, 6]?
A: (6.6)

Q: What about the “Solubility for 24 h” value [1, 6] of the same compound?
A: 6.4 µg/mL

Q: And the “pH … for 24 h (pH)” value [1, 6]?
A: (6.5)

Q: What about the “Solubility for 2 h” value [1, 7] of the same compound?
A: 6.1 µg/mL

Q: What about the “pH … for 2 h (pH)” value [1, 7] of the same compound?
A: (7.2)

Q: And the “Solubility for 24 h” value [1, 7]?
A: 4.1 µg/mL

Q: And the “pH … for 24 h (pH)” value [1, 7]?
A: (7.1)

Q: And the “Solubility for 2 h” value ([1]; ES5, SGF, pH 2.0, 37° C.)?
A: >2000 µg/mL

Q: And the “pH … for 2 h (pH)” value ([1]; ES5, SGF, pH 2.0, 37° C.)?
A: (1.9)

Q: What about the “Solubility for 24 h” value ([1]; ES5, SGF, pH 2.0, 37° C.) of the same compound?
A: >2000 µg/mL

Q: And the “pH … for 24 h (pH)” value ([1]; ES5, SGF, pH 2.0, 37° C.)?
A: (1.8)

Q: And the “Solubility for 2 h” value ([1]; ES6, FaSSIF-v1, pH 6.5, 37° C.)?
A: 26.8 µg/mL

Q: And the “pH … for 2 h (pH)” value ([1]; ES6, FaSSIF-v1, pH 6.5, 37° C.)?
A: (6.2)

Q: What about the “Solubility for 24 h” value ([1]; ES6, FaSSIF-v1, pH 6.5, 37° C.) of the same compound?
A: 21.1 µg/mL

Q: And the “pH … for 24 h (pH)” value ([1]; ES6, FaSSIF-v1, pH 6.5, 37° C.)?
A: (6.1)

Q: What about the “Solubility for 2 h” value ([1]; ES7, FeSSIF-v1, pH 5.0, 37° C.) of the same compound?
A: 1600 µg/mL

Q: What about the “pH … for 2 h (pH)” value ([1]; ES7, FeSSIF-v1, pH 5.0, 37° C.) of the same compound?
A: (5.0)

Q: What about the “Solubility for 24 h” value ([1]; ES7, FeSSIF-v1, pH 5.0, 37° C.) of the same compound?
A: 1700 µg/mL

Q: What about the “pH … for 24 h (pH)” value ([1]; ES7, FeSSIF-v1, pH 5.0, 37° C.) of the same compound?
A: (4.9)

Q: And the maintenance of supersaturation ([1]; pH 4.5 buffer, 37° C.)?
A: can be maintained for a longer time than the crystalline Form B* of Compound I maleate salt

Q: And the “hygroscopicity / water sorption behavior (DVS)” value [2]?
A: slightly hygroscopic in <90% RH. Then it becomes hygroscopic

Q: What about the “relative humidity in which it converts to hydrate form (DVS)” value [2] of the same compound?
A: > 30 % RH

Q: And the “relative humidity in which the form dehydrates (DVS)” value [2]?
A: < 30 % RH

Q: What about the “solid form of the sample after the DVS test” value [2] of the same compound?
A: still the Form A* of Compound I phosphate salt

Q: And the “water uptake (DVS)” value ([2]; from 40% to 95% RH)?
A: 3.3%

Q: What about the “relative humidity at which the form dehydrates and converts to anhydrate Form B of Compound I phosphate salt” value [3] of the same compound?
A: < 20 % RH
